According to patent publication US20230167073A1 (Teijin Pharma Limited, priority 2020, published 2023):
pIC50: −log10 of the molar value.

What follows are molecules tested against T1, Human TRPC6 (Homo sapiens, UniProt Q9Y210) (assay: Evaluation of TRPC6 channel inhibitory activity (1), FLIPR Calcium 5 Assay Kit, OAG stimulation (Compound Nos. 1-1293)). Conditions: not given.
T1 construct: expressed in transfected cells
T1 sequence (Q9Y210 1-931): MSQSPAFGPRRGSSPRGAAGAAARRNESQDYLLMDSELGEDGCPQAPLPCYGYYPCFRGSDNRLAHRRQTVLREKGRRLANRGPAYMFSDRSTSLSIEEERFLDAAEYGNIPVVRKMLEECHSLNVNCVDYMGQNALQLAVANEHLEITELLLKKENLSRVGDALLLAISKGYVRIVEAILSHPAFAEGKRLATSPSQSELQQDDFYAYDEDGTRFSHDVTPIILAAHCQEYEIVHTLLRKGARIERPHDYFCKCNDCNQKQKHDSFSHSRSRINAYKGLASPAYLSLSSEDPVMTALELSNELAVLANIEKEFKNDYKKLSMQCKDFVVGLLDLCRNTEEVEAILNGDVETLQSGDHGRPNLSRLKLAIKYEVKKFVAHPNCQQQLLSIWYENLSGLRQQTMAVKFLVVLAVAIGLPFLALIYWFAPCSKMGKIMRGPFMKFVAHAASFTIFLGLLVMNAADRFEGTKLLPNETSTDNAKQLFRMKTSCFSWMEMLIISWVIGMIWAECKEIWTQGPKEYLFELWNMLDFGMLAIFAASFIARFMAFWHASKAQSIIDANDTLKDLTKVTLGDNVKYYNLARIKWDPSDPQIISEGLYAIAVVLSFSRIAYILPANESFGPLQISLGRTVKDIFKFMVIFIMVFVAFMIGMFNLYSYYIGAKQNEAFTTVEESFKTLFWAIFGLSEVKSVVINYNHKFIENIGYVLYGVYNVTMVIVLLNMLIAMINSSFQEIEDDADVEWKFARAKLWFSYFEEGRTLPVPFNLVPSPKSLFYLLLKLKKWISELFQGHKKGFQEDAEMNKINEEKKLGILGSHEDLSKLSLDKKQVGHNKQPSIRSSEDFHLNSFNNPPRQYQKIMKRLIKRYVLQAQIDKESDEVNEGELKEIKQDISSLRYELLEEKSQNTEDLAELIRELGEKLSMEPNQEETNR
Type: cell-based
Summary of the method: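 Readout is pIC50 from four-parameter logistic fitting of inhibition of the OAG-evoked (30 μM final) fluorescence calcium signal. Human TRPC6 stable cells are dye-loaded with probenecid, and compound is applied 20 min ahead of agonist.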

| SMILES | pIC50 |
| --- | --- |
| Cc1nc(Oc2cc(C#N)ccc2-c2ncc(CCN)cn2)cc(N2C3CCC2CC3)n1 [compound 671, 4-[5-(2-aminoethyl)pyrimidin-2-yl]-3-[6-(7-azabicyclo[2.2.1]heptan-7-yl)-2-methylpyrimidin-4-yl]oxybenzonitrile] | > 8.00 |
| Cc1nc(Oc2cc(C#N)ccc2-c2ncc(CN)cn2)cc(N2C3CCC2CC3)n1 [compound 672, 4-[5-(aminomethyl)pyrimidin-2-yl]-3-[6-(7-azabicyclo[2.2.1]heptan-7-yl)-2-methylpyrimidin-4-yl]oxybenzonitrile] | > 8.00 |

Same assay, conditions: Human TRPC6 stably-expressing cells, OAG 30 μM, FLIPR Calcium 5 Assay Kit; read-out: Inhibitory activity (pIC50 class) (converted)

| IC50 | SMILES |
| --- | --- |
| < 10 nM | Cc1nc(Oc2cc(C#N)ccc2-c2ccc(CN)cn2)cc(N2CCCC2)n1 [compound 657, 4-[5-(aminomethyl)pyridin-2-yl]-3-(2-methyl-6-pyrrolidin-1-ylpyrimidin-4-yl)oxybenzonitrile] |
| 10 to 1000 nM | Cc1nc(Oc2cc(C#N)ccc2-c2ncc(CN)cn2)cc(N2CCCC2)n1 [compound 658, 4-[5-(aminomethyl)pyrimidin-2-yl]-3-(2-methyl-6-pyrrolidin-1-ylpyrimidin-4-yl)oxybenzonitrile] |
| > 1000 nM | Cc1nc(Oc2cc(C#N)ccc2-c2ncc(CN)cn2)cc(N(C)C)n1 [compound 660, 4-[5-(aminomethyl)pyrimidin-2-yl]-3-[6-(dimethylamino)-2-methylpyrimidin-4-yl]oxybenzonitrile] |
| 10 to 1000 nM | Cc1nc(Oc2cc(C#N)ccc2-c2ncc(CN)cn2)cc(N2CCC(F)CC2)n1 [compound 669, 4-[5-(aminomethyl)pyrimidin-2-yl]-3-[6-(4-fluoropiperidin-1-yl)-2-methylpyrimidin-4-yl]oxybenzonitrile] |
| 10 to 1000 nM | Cc1nc(Oc2cc(C#N)ccc2-c2ncc(CN)cn2)cc(N2CCC[C@H]2C#N)n1 [compound 675, (2S)-1-[6-[2-[5-(aminomethyl)pyrimidin-2-yl]-5-cyanophenoxy]-2-methylpyrimidin-4-yl]pyrrolidine-2-carbonitrile] |
| > 1000 nM | Cn1nc2c(c1Oc1cc(C#N)ccc1-c1ncc(CN)cn1)CCC2 [compound 678, 4-[5-(aminomethyl)pyrimidin-2-yl]-3-[(2-methyl-5,6-dihydro-4H-cyclopenta[c]pyrazol-3-yl)oxy]benzonitrile] |
| > 1000 nM | Cn1nc2c(c1Oc1cc(C#N)ccc1-c1ncc(CN)cn1)COCC2 [compound 679, 4-[5-(aminomethyl)pyrimidin-2-yl]-3-[(2-methyl-6,7-dihydro-4H-pyrano[4,3-c]pyrazol-3-yl)oxy]benzonitrile] |
| > 1000 nM | Cn1nc(C2CC2)cc1Oc1cc(C#N)ccc1-c1nccc(CN)n1 [compound 680, 4-[4-(aminomethyl)pyrimidin-2-yl]-3-(5-cyclopropyl-2-methylpyrazol-3-yl)oxybenzonitrile] |
| > 1000 nM | Cc1cc(Oc2cc(C#N)ccc2-c2nccc(CN)n2)cc(N2CCOCC2)n1 [compound 681, 4-[4-(aminomethyl)pyrimidin-2-yl]-3-(2-methyl-6-morpholin-4-ylpyridin-4-yl)oxybenzonitrile] |
| 10 to 1000 nM | Cn1nc(-c2ccccn2)cc1Oc1cc(C#N)ccc1-c1nccc(CN)n1 [compound 682, 4-[4-(aminomethyl)pyrimidin-2-yl]-3-(2-methyl-5-pyridin-2-ylpyrazol-3-yl)oxybenzonitrile] |
| > 1000 nM | Cn1nc2c(c1Oc1cc(C#N)ccc1-c1cc(CCN)ccn1)CCC2 [compound 683, 4-[4-(2-aminoethyl)pyridin-2-yl]-3-[(2-methyl-5,6-dihydro-4H-cyclopenta[c]pyrazol-3-yl)oxy]benzonitrile] |
| > 1000 nM | Cn1nc2c(c1Oc1cc(C#N)ccc1-c1ncc(CN)cn1)CCCC2 [compound 684, 4-[5-(aminomethyl)pyrimidin-2-yl]-3-[(2-methyl-4,5.6,7-tetrahydroindazol-3-yl)oxy]benzonitrile] |
| > 1000 nM | Cn1nc2c(c1Oc1cc(C#N)ccc1-c1nccc(CN)n1)CCCC2 [compound 685, 4-[4-(aminomethyl)pyrimidin-2-yl]-3-[(2-methyl-4,5,6,7-tetrahydroindazol-3-yl)oxy]benzonitrile] |

Second part, the molecule before the results:

| SMILES | IC50 |
| --- | --- |
| Cc1nc(Oc2cc(C#N)ccc2-c2ccc(CN)cn2)cc(N(C)C)n1 [compound 659, 4-[5-(aminomethyl)pyridin-2-yl]-3-[6-(dimethylamino)-2-methylpyrimidin-4-yl]oxybenzonitrile] | 10 to 1000 nM |
| Cc1cc(Oc2cc(C#N)ccc2-c2ncc(CNC(C)(C)C)cn2)cc(N2CCOCC2)n1 [compound 661, 4-[5-[(tert-butylamino)methyl]pyrimidin-2-yl]-3-(2-methyl-6-morpholin-4-ylpyridin-4-yl)oxybenzonitrile] | > 1000 nM |
| Cn1nc(-c2ccccn2)cc1Oc1cc(C#N)ccc1-c1ncc(CNC2CC2)cn1 [compound 662, 4-[5-[(cyclopropylamino)methyl]pyrimidin-2-yl]-3-(2-methyl-5-pyridin-2-ylpyrazol-3-yl)oxybenzonitrile] | 10 to 1000 nM |
| CC(C)NCc1cnc(-c2ccc(C#N)cc2Oc2cc(-c3ccccn3)nn2C)nc1 [compound 663, 3-(2-methyl-5-pyridin-2-ylpyrazol-3-yl)oxy-4-[5-[(propan-2-ylamino)methyl]pyrimidin-2-yl]benzonitrile] | 10 to 1000 nM |
| Cn1nc(-c2ccccn2)cc1Oc1cc(C#N)ccc1-c1ncc(CNC(C)(C)C)cn1 [compound 664, 4-[5-[(tert-butylamino)methyl]pyrimidin-2-yl]-3-(2-methyl-5-pyridin-2-ylpyrazol-3-yl)oxybenzonitrile] | 10 to 1000 nM |
| Cn1nc(-c2ccccn2)cc1Oc1cc(C#N)ccc1-c1ncc(CNC2(C)COC2)cn1 [compound 665, 4-[5-[[(3-methyloxetan-3-yl)amino]methyl]pyrimidin-2-yl]-3-(2-methyl-5-pyridin-2-ylpyrazol-3-yl)oxybenzonitrile] | > 1000 nM |
| Cn1nc(-c2ccccn2)cc1Oc1cc(C#N)ccc1-c1ncc(CNC23CC4CC(CC(C4)C2)C3)cn1 [compound 666, 4-[5-[(1-adamantylamino)methyl]pyrimidin-2-yl]-3-(2-methyl-5-pyridin-2-ylpyrazol-3-yl)oxybenzonitrile] | > 1000 nM |
| Cc1nc(Oc2cc(C#N)ccc2-c2ccc(CC3(N)COC3)cn2)cc(N2CCC(F)CC2)n1 [compound 667, 4-[5-[(3-aminooxetan-3-yl)methyl]pyridin-2-yl]-3-[6-(4-fluoropiperidin-1-yl)-2-methylpyrimidin-4-yl]oxybenzonitrile] | 10 to 1000 nM |
| Cc1nc(Oc2cc(C#N)ccc2-c2ncc(CCN)cn2)cc(N2CCC(F)CC2)n1 [compound 668, 4-[5-(2-aminoethyl)pyrimidin-2-yl]-3-[6-(4-fluoropiperidin-1-yl)-2-methylpyrimidin-4-yl]oxybenzonitrile] | < 10 nM |
| Cc1nc(Oc2cc(C#N)ccc2-c2ccc(CC3(N)COC3)cn2)cc(N2CCC[C@H]2C#N)n1 [compound 673, (2S)-1-[6-[2-[5-[(3-aminooxetan-3-yl)methyl]pyridin-2-yl]-5-cyanophenoxy]-2-methylpyrimidin-4-yl]pyrrolidine-2-carbonitrile] | > 1000 nM |
| Cc1nc(Oc2cc(C#N)ccc2-c2ncc(CCN)cn2)cc(N2CCC[C@H]2C#N)n1 [compound 674, (2S)-1-[6-[2-[5-(2-aminoethyl)pyrimidin-2-yl]-5-cyanophenoxy]-2-methylpyrimidin-4-yl]pyrrolidine-2-carbonitrile] | 10 to 1000 nM |
| Cc1cc(Oc2cc(C#N)ccc2-c2ncc(CN)cn2)no1 [compound 676, 4-[5-(aminomethyl)pyrimidin-2-yl]-3-[(5-methyl-1,2-oxazol-3-yl)oxy]benzonitrile] | > 1000 nM |
| Cc1cc(Oc2cc(C#N)ccc2-c2ncc(CCN)cn2)no1 [compound 677, 4-[5-(2-aminoethyl)pyrimidin-2-yl]-3-[(5-methyl-1,2-oxazol-3-yl)oxy]benzonitrile] | > 1000 nM |
| Cc1cc(Oc2cc(C#N)ccc2-c2ncc(CCN)cn2)cc(-c2ncccn2)n1 [compound 686, 4-[5-(2-aminoethyl)pyrimidin-2-yl]-3-(2-methyl-6-pyrimidin-2-ylpyridin-4-yl)oxybenzonitrile] | > 1000 nM |
| Cc1cc(Oc2cc(C#N)ccc2-c2ncc(CCN)cn2)cc(-c2nccn2C)n1 [compound 687, 4-[5-(2-aminoethyl)pyrimidin-2-yl]-3-[2-methyl-6-(1-methylimidazol-2-yl)pyridin-4-yl]oxybenzonitrile] | > 1000 nM |
| Cc1cc(Oc2cc(C#N)ccc2-c2ncc([C@H](O)CN)cn2)cc(-c2ccccn2)n1 [compound 688, 4-[5-[(1S)-2-amino-1-hydroxyethyl]pyrimidin-2-yl]-3-(2-methyl-6-pyridin-2-ylpyridin-4-yl)oxybenzonitrile] | 10 to 1000 nM |
